According to EP4596574A1, “GLP-1/GCG/GIP TRIPLE-RECEPTOR AGONIST AND USE THEREOF” (Sunshine Lake Pharma Co., Ltd., priority 2022, dated 2024):
Marks after values point to notes of the source that are not given here.

Tests used:
[1] = Glucose tolerance assessment in normal C57BL/6 mice (Example 5); type: in vivo; details: 3 nmol/kg s.c. single dose, 24 h after administration
Procedure: (§1) Twelve hours after the single administration, the animals were fasted for 12 hours and had free access to water. Blood was collected from the tail vein to determine the basal blood glucose level of each group of animals, and then 2 g/kg glucose solution was injected intraperitoneally. Blood glucose was tested at 15, 30, 60, and 90 min after glucose administration. The blood glucose concentration-time curve was drawn according to the blood glucose values measured at different time points, and the AUC0~90min of each dose group was calculated as shown in Table 5 and Figure 2. Table 5: Effects of single administration of HEC-PT86, HEC-PT96, HEC-PT112, HEC-PT113, HEC-PT114, and HEC-PT119 on glucose tolerance in normal C57 mice 24 h after administration

[2] = Long-term repeated administration in diet-induced obese C57BL/6 mice (DIO); type: in vivo, C57/BL6 mice
Excerpt: Experimental methods: C57/BL6 mice were randomly divided into a normal group (NFD) and a model group (HFD) at the fifth week of age. The normal group was fed with ordinary maintenance feed, while the other groups were fed with high-fat feed D12492. The body weight and food intake of mice were monitored every 3 weeks. After 16 weeks of feeding, the body weights of mice in the model group and the normal group were (49.0±2.3) g and (31.0±2.0) g, respectively, and the difference between the two groups was statistically significant. […] Body weight and food intake were measured before each administration. After 3 weeks of administration, an intraperitoneal glucose tolerance test was performed. The mice were slaughtered and samples were collected 72 h after the last administration. The liver weight was recorded, and the liver pathological conditions and blood biochemical indexes of each group were tested.

[3] = In vivo efficacy evaluation in db/db mouse model (blood glucose); parameters: species or system db/db mice; details: db/db mice
Procedure: Blood glucose was tested before each administration.

[4] = Glucose tolerance assessment in normal C57BL/6 mice (Example 4); type: in vivo; details: 3 nmol/kg s.c. single dose, 24 h after administration
Procedure: as §1, with “Table 4” for “Table 5”, “Figure 1.” for “Figure 2.”, “Table 4:” for “Table 5:”, “of HEC-PT74, HEC-PT75, HEC-PT77, HEC-PT78, HEC-PT80,” for “of HEC-PT86, HEC-PT96, HEC-PT112, HEC-PT113, HEC-PT114,”, “and HEC-PT82” for “and HEC-PT119”

[5] = 15 min after 2 g/kg glucose i.p.
[6] = 30 min after 2 g/kg glucose i.p.
[7] = 60 min after 2 g/kg glucose i.p.
[8] = 90 min after 2 g/kg glucose i.p.
[9] = basal before 2 g/kg glucose i.p.
[10] = blood glucose AUC, 2 g/kg glucose i.p.
[11] = 10 nmol/kg s.c. once every 3 days, D7
[12] = 10 nmol/kg s.c. once every 3 days, D10
[13] = 10 nmol/kg s.c. once every 3 days, D13
[14] = 10 nmol/kg s.c. once every 3 days, D16
[15] = 10 nmol/kg s.c. once every 3 days, D19
[16] = 10 nmol/kg s.c. once every 3 days, D22
[17] = 10 nmol/kg s.c. once every 3 days, D25
[18] = 10 nmol/kg s.c. once every 3 days, D28
[19] = long-term administration 10 nmol/kg, 72 h after the last administration
[20] = long-term administration 10 nmol/kg, blood biochemical index

With `CC[C@H](C)[C@H](NC(=O)[C@H](CC(C)C)NC(=O)[C@H](Cc1c[nH]c2ccccc12)NC(=O)[C@H](CCC(N)=O)NC(=O)[C@@H](NC(=O)[C@H](Cc1ccccc1)NC(=O)[C@H](C)NC(=O)[C@H](CCCCNC(=O)COCCOCCNC(=O)COCCOCCNC(=O)CC[C@H](NC(=O)CCCCCCCCCCCCCCCCCCC(=O)O)C(=O)O)NC(=O)[C@H](CCC(N)=O)NC(=O)[C@H](C)NC(=O)[C@@H](NC(=O)[C@H](CCCCN)NC(=O)[C@H](CC(=O)O)NC(=O)[C@H](CC(C)C)NC(=O)C(C)(C)NC(=O)[C@@H](NC(=O)[C@H](CO)NC(=O)[C@H](Cc1ccc(O)cc1)NC(=O)[C@H](CC(=O)O)NC(=O)[C@H](CO)NC(=O)[C@@H](NC(=O)[C@H](Cc1ccccc1)NC(=O)[C@@H](NC(=O)CNC(=O)[C@H](CCC(=O)O)NC(=O)C(C)(C)NC(=O)[C@@H](N)Cc1ccc(O)cc1)[C@@H](C)O)[C@@H](C)O)[C@@H](C)CC)[C@@H](C)CC)C(C)C)C(=O)N[C@@H](C)C(=O)NCC(=O)NCC(=O)N1CCC[C@H]1C(=O)N[C@@H](CO)C(=O)N[C@@H](CO)C(=O)NCC(=O)N[C@@H](C)C(=O)N1CCC[C@H]1C(=O)N1CCC[C@H]1C(=O)N1CCC[C@H]1C(=O)N[C@@H](CO)C(N)=O` [LY3298176, tirzepatide, reference compound] the “Blood glucose level (mM) 15 min” value [1, 5] was 13.6 ± 3.1 mM, the “Blood glucose level (mM) 30 min” value [1, 6] was 9.9 ± 3.2 mM and the “Blood glucose level (mM) 60 min” value [1, 7] was 6.9 ± 0.9 mM. For the same compound, the “Blood glucose level (mM) 90 min” value [1, 8] was 7.2 ± 0.9 mM, the “Blood glucose level (mM) 0 min” value [1, 9] was 4.9 ± 1.0 mM and the AUC0-90 min [1, 10] was 776.9±125.6^a. The “Cumulative food intake (g/pcs) D7” value [2, 11] was 10.2 g/pcs, the “Weight gain rate (%) D7” value [2, 11] was -15.4±2.9% and the “Cumulative food intake (g/pcs) D10” value [2, 12] was 13.0 g/pcs. The “Weight gain rate (%) D10” value [2, 12] was -19.6±3.2%, the “Cumulative food intake (g/each) D13” value [2, 13] was 16.6 g/each and the “Weight gain rate (%) D13” value [2, 13] was -24.3±6.4%. The “Cumulative food intake (g/each) D16” value [2, 14] was 22.1 g/each, the “Weight gain rate (%) D16” value [2, 14] was -23.4±5.1% and the “Cumulative food intake (g/each) D19” value [2, 15] was 27.9 g/each. The “Weight gain rate (%) D19” value [2, 15] was -26.0±7.3%, the “Cumulative food intake (g/each) D22” value [2, 16] was 34.2 g/each and the “Weight gain rate (%) D22” value [2, 16] was -26.7±7.7%. The “Cumulative food intake (g/each) D25” value [2, 17] was 40.6 g/each, the “Weight gain rate (%) D25” value [2, 17] was -27.7±7.0% and the “Cumulative food intake (g/each) D28” value [2, 18] was 48.1 g/each. The “Weight gain rate (%) D28” value [2, 18] was -28.2±7.3%, the “Cumulative food intake (g/each) D30” value ([2]; 10 nmol/kg s.c. once every 3 days, D30) was 51.9^a g/each and the “Weight gain rate (%) D31” value ([2]; 10 nmol/kg s.c. once every 3 days, D31) was -28.0±6.8^a %. For the same compound, the “Cumulative food intake (g/pcs) D0” value ([2]; 10 nmol/kg s.c., D0) was 2.7 g/pcs, the “Weight gain rate (%) D0” value ([2]; 10 nmol/kg s.c., D0) was 0.0±0.0% and the “Cumulative food intake (g/pcs) D1” value ([2]; 10 nmol/kg s.c., D1) was 3.0 g/pcs. For the same compound, the “Weight gain rate (%) D1” value ([2]; 10 nmol/kg s.c., D1) was -6.4±0.9%, the “Cumulative food intake (g/pcs) D2” value ([2]; 10 nmol/kg s.c., D2) was 3.8 g/pcs and the “Weight gain rate (%) D2” value ([2]; 10 nmol/kg s.c., D2) was -8.9±1.3%. The “Cumulative food intake (g/pcs) D3” value ([2]; 10 nmol/kg s.c., D3) was 5.1 g/pcs, the “Weight gain rate (%) D3” value ([2]; 10 nmol/kg s.c., D3) was -8.7±1.9% and the “Cumulative food intake (g/pcs) D4” value ([2]; 10 nmol/kg s.c., D4) was 7.4 g/pcs. For the same compound, the “Weight gain rate (%) D4” value ([2]; 10 nmol/kg s.c., D4) was -7.7±2.1%, the Liver/g [2, 19] was 1.0±0.1^a g and the Weight/g [2, 19] was 32.6±3.9^a g. For the same compound, the “ALT (U/L)” value [2, 20] was 30.9±3.1^a U/L, the “AST (U/L)” value [2, 20] was 110.3±17.6^a U/L and the “CHOL (mmol/L)” value [2, 20] was 3.3±0.5^a mmol/L. The “TRIGL (mmol/L)” value [2, 20] was 0.6±0.1^a mmol/L, the “Random blood glucose (mM) D0” value ([3]; 10 nmol/kg s.c. once every three days, D0 (before first dose)) was 26.1 ± 3.8 mM and the “Random blood glucose (mM) D3” value ([3]; 10 nmol/kg s.c. once every three days, D3) was 22.4 ± 3.7 mM. For the same compound, the “Random blood glucose (mM) D4” value ([3]; 10 nmol/kg s.c. once every three days, D4) was 22.1 ± 4.0 mM, the “Random blood glucose (mM) D5” value ([3]; 10 nmol/kg s.c. once every three days, D5) was 24.2 ± 3.9 mM and the “Random blood glucose (mM) D6” value ([3]; 10 nmol/kg s.c. once every three days, D6) was 25.3 ± 4.0 mM. For the same compound, the “Random blood glucose (mM) D7” value ([3]; 10 nmol/kg s.c. once every three days, D7) was 23.5 ± 2.6 mM, the “Random blood glucose (mM) D10” value ([3]; 10 nmol/kg s.c. once every three days, D10) was 18.5 ± 5.1 mM and the “Random blood glucose (mM) D13” value ([3]; 10 nmol/kg s.c. once every three days, D13) was 20.1 ± 5.8 mM. The “Random blood glucose (mM) D16” value ([3]; 10 nmol/kg s.c. once every three days, D16) was 18.6 ± 4.0 mM, the “Random blood glucose (mM) D19” value ([3]; 10 nmol/kg s.c. once every three days, D19) was 18.7 ± 3.8 mM and the “Random blood glucose (mM) D22” value ([3]; 10 nmol/kg s.c. once every three days, D22) was 16.2 ± 4.6 mM. For the same compound, the “Random blood glucose (mM) D25” value ([3]; 10 nmol/kg s.c. once every three days, D25) was 16.6±3.7^a mM, the “Random blood glucose (mM) 6 h” value ([3]; 10 nmol/kg s.c., 6 h) was 16.8 ± 5.0 mM and the “Random blood glucose (mM) 24 h” value ([3]; 10 nmol/kg s.c., 24 h) was 13.0 ± 6.7 mM. The “Random blood glucose (mM) 48 h” value ([3]; 10 nmol/kg s.c., 48 h) was 19.9 ± 5.6 mM, the “Blood glucose level (mM) 15 min” value [4, 5] was 12.6 ± 3.5 mM and the “Blood glucose level (mM) 30 min” value [4, 6] was 9.5 ± 3.3 mM. The “Blood glucose level (mM) 60 min” value [4, 7] was 7.9 ± 1.4 mM, the “Blood glucose level (mM) 90 min” value [4, 8] was 6.5 ± 1.3 mM and the “Blood glucose level (mM) 0 min” value [4, 9] was 4.0 ± 0.8 mM. The AUC0-90 min [4, 10] was 768.2±171.6^a.
